Calls of active or inactive are those of the source. No cut-off for these calls is given here.
Tests used:
[1] = Toxicity in Balb/cA nude mouse xenografted with human KBv200 cells assessed as changes in body weight at 25 mg/kg, ip qd administered for 13 days in presence of vinorelbine; type: organism-based; conditions: in vivo, 312 h, time 13 day
[2] = tested on: KBv200; assay: Antitumor activity against human KBv200 cells xenografted in Balb/cA nude mouse assessed as mean tumor volume at 50 mg/kg, ip qd administered for 13 days in presence of vinorelbine; type: functional; conditions: time 13 day
[3] = Bioavailability in CD-1 mouse at 25 mg/kg, ip; type: ADME, organism-based; conditions: in vivo
[4] = tested on: K562/Adr; assay: Reversal of vinorelbine resistance in human K562/Adr cells assessed as reduction in cell viability incubated for 72 hrs in presence of vinorelbine (reference value: 7320.6+/-2115.2 nM); type: functional, cell-based
[5] = tested on: KBv200; assay: Reversal fold, ratio of vinorelbine IC50 for cytotoxicity against human KBv200 cells over test compound IC50 for reversal of vinorelbine resistance in human KBv200 cells; type: functional
[6] = tested on: KBv200; assay: Antitumor activity against human KBv200 cells xenografted in Balb/cA nude mouse assessed as mean tumor volume at 25 mg/kg, ip administered as single dose and measured on day 0 in presence of vinorelbine; type: functional
[7] = Tmax in CD-1 mouse at 30 mg/kg, po; type: ADME, organism-based; conditions: in vivo
[8] = Cytotoxicity against human L02 cells assessed as reduction in cell viability incubated for 48 hrs by CCK-8 assay; type: toxicity, cell-based
[9] = tested on: KBv200; assay: Antitumor activity against human KBv200 cells xenografted in Balb/cA nude mouse assessed as mean tumor volume at 50 mg/kg, ip administered as single dose and measured on day 0; type: functional
[10] = tested on: KBv200; assay: Antitumor activity against human KBv200 cells xenografted in Balb/cA nude mouse assessed as tumor growth inhibition at 25 mg/kg, ip qd administered for 13 days in presence of vinorelbine; type: functional; conditions: KBv200, 312 h, time 13 day
[11] = tested on: NCI/ADR-RES; assay: Reversal of vinorelbine resistance in human NCI/ADR-RES cells assessed as reduction in cell viability incubated for 72 hrs in presence of vinorelbine (reference value: 6125.7+/-3267.7 nM); type: functional, cell-based
[12] = tested on: KBv200; assay: Reversal of paclitaxel resistance in human KBv200 cells assessed as reduction in cell viability incubated for 72 hrs in presence of paclitaxel (reference value: 392.9+/-196.5 nM); type: functional, cell-based; conditions: KBv200, 72 h
[13] = tested on: KBv200; assay: Reversal of adriamycin resistance in human KBv200 cells assessed as reduction in cell viability incubated for 72 hrs in presence of adriamycin (reference value: 1291.2+/-308.9 nM); type: functional, cell-based; conditions: KBv200, 72 h
[14] = AUClast in CD-1 mouse at 30 mg/kg, po; type: ADME, organism-based; set-up: dose 30 mg/kg, route po; conditions: in vivo
[15] = Toxicity in Balb/cA nude mouse xenografted with human KBv200 cells assessed as mortality at 50 mg/kg, ip qd administered for 13 days; type: organism-based; conditions: in vivo, 312 h, time 13 day
[16] = Half life in CD-1 mouse at 30 mg/kg, po; type: ADME, organism-based; conditions: in vivo
[17] = tested on: OVCAR-8; assay: Reversal of vinorelbine resistance in human OVCAR-8 cells assessed as reduction in cell viability incubated for 72 hrs in presence of vinorelbine (reference value: 16.2+/-4.7 nM); type: functional, cell-based; conditions: OVCAR-8, 72 h
[18] = Clearance in CD-1 mouse at 3 mg/kg, iv; type: ADME, organism-based; conditions: in vivo
[19] = tested on: KBv200; assay: Antitumor activity against human KBv200 cells xenografted in Balb/cA nude mouse assessed as mean tumor volume at 50 mg/kg, ip administered as single dose and measured on day 0 in presence of vinorelbine; type: functional
[20] = tested on: KBv200; assay: Reversal of vinorelbine resistance in human KBv200 cells assessed as reduction in cell viability incubated for 72 hrs in presence of vinorelbine (reference value: 224 to 228.30 nM); type: functional, cell-based; conditions: KBv200, 72 h, read-out: IC50
[21] = tested on: KBv200; assay: Antitumor activity against human KBv200 cells xenografted in Balb/cA nude mouse assessed as tumor growth inhibition at 50 mg/kg, ip qd administered for 13 days in presence of vinorelbine; type: functional; conditions: KBv200, 312 h, time 13 day
[22] = tested on: KBv200; assay: Antitumor activity against human KBv200 cells xenografted in Balb/cA nude mouse assessed as T/C ratio at 50 mg/kg, ip qd administered for 13 days in presence of vinorelbine; type: functional; conditions: time 13 day
[23] = tested on: K562; assay: Reversal of vinorelbine resistance in human K562 cells assessed as reduction in cell viability incubated for 72 hrs in presence of vinorelbine (reference value: 5.9+/-0.2 nM); type: functional, cell-based; conditions: K562, 72 h
[24] = AUClast in CD-1 mouse at 25 mg/kg, ip; type: ADME, organism-based; set-up: dose 25 mg/kg, route ip; conditions: in vivo
[25] = AUCinf in CD-1 mouse at 3 mg/kg, iv; type: ADME, organism-based; set-up: dose 3 mg/kg, route iv; conditions: in vivo
[26] = tested on: KBv200; assay: Antitumor activity against human KBv200 cells xenografted in Balb/cA nude mouse assessed as T/C ratio at 50 mg/kg, ip qd administered for 13 days; type: functional; conditions: time 13 day
[27] = tested on: KBv200; assay: Downregulation of P-gp mRNA expression level in human KBV200 cells by qRT-PCR analysis; type: functional, cell-based
[28] = Toxicity in Balb/cA nude mouse xenografted with human KBv200 cells assessed as mortality at 50 mg/kg, ip qd administered for 13 days in presence of vinorelbine; type: organism-based; conditions: in vivo, 312 h, time 13 day
[29] = tested on: KBv200; assay: Antitumor activity against human KBv200 cells xenografted in Balb/cA nude mouse assessed as mean tumor volume at 50 mg/kg, ip qd administered for 13 days; type: functional; conditions: time 13 day
[30] = tested on: KBv200; assay: Antitumor activity against human KBv200 cells xenografted in Balb/cA nude mouse assessed as T/C ratio at 25 mg/kg, ip qd administered for 13 days in presence of vinorelbine; type: functional; conditions: time 13 day
[31] = AUCinf in CD-1 mouse at 25 mg/kg, ip; type: ADME, organism-based; set-up: dose 25 mg/kg, route ip; conditions: in vivo
[32] = Toxicity in Balb/cA nude mouse xenografted with human KBv200 cells assessed as mortality at 25 mg/kg, ip qd administered for 13 days in presence of vinorelbine; type: organism-based; conditions: in vivo, 312 h, time 13 day
[33] = AUClast in CD-1 mouse at 3 mg/kg, iv; type: ADME, organism-based; set-up: dose 3 mg/kg, route iv; conditions: in vivo
[34] = Cmax in CD-1 mouse at 25 mg/kg, ip; type: ADME, organism-based; set-up: dose 25 mg/kg, route ip; conditions: in vivo
[35] = tested on: KBv200; assay: Antitumor activity against human KBv200 cells xenografted in Balb/cA nude mouse assessed as mean tumor volume at 25 mg/kg, ip qd administered for 13 days in presence of vinorelbine; type: functional; conditions: time 13 day
[36] = Oral bioavailability in CD-1 mouse at 30 mg/kg; type: ADME, organism-based; conditions: in vivo
[37] = Toxicity in Balb/cA nude mouse xenografted with human KBv200 cells assessed as changes in body weight at 50 mg/kg, ip qd administered for 13 days; type: organism-based; conditions: in vivo, 312 h, time 13 day
[38] = Toxicity in Balb/cA nude mouse xenografted with human KBv200 cells assessed as changes in body weight at 50 mg/kg, ip qd administered for 13 days in presence of vinorelbine; type: organism-based; conditions: in vivo, 312 h, time 13 day
[39] = Cytotoxicity against human HEK293T cells assessed as reduction in cell viability incubated for 48 hrs by CCK-8 assay; type: toxicity, cell-based, HEK-293T
[40] = Tmax in CD-1 mouse at 25 mg/kg, ip; type: ADME, organism-based; conditions: in vivo
[41] = Cmax in CD-1 mouse at 30 mg/kg, po; type: ADME, organism-based; set-up: dose 30 mg/kg, route po; conditions: in vivo
[42] = tested on: KBv200; assay: Antitumor activity against human KBv200 cells xenografted in Balb/cA nude mouse assessed as tumor growth inhibition at 50 mg/kg, ip qd administered for 13 days; type: functional; conditions: KBv200, 312 h, time 13 day
[43] = Half life in CD-1 mouse at 25 mg/kg, ip; type: ADME, organism-based; conditions: in vivo
[44] = AUCinf in CD-1 mouse at 30 mg/kg, po; type: ADME, organism-based; set-up: dose 30 mg/kg, route po; conditions: in vivo
[45] = Half life in CD-1 mouse at 3 mg/kg, iv; type: ADME, organism-based; conditions: in vivo
[46] = molecular target: ATP-dependent translocase ABCB1 (Homo sapiens, UniProt P08183); assay: Inhibition of P-gp in human KBv200 cells assessed as induction of conformation change by measuring increase in UIC-2 binding level at 50 uM incubated for 10 mins by UIC-2 reactivity shift assay; type: cell-based; conditions: kbv200, 10 min
[47] = tested on: KB; assay: Reversal of vinorelbine resistance in human KB cells assessed as reduction in cell viability incubated for 72 hrs in presence of vinorelbine (reference value: 7.4+/-2.2 nM); type: functional, cell-based

Sequence of ATP-dependent translocase ABCB1 (P08183 whole entry): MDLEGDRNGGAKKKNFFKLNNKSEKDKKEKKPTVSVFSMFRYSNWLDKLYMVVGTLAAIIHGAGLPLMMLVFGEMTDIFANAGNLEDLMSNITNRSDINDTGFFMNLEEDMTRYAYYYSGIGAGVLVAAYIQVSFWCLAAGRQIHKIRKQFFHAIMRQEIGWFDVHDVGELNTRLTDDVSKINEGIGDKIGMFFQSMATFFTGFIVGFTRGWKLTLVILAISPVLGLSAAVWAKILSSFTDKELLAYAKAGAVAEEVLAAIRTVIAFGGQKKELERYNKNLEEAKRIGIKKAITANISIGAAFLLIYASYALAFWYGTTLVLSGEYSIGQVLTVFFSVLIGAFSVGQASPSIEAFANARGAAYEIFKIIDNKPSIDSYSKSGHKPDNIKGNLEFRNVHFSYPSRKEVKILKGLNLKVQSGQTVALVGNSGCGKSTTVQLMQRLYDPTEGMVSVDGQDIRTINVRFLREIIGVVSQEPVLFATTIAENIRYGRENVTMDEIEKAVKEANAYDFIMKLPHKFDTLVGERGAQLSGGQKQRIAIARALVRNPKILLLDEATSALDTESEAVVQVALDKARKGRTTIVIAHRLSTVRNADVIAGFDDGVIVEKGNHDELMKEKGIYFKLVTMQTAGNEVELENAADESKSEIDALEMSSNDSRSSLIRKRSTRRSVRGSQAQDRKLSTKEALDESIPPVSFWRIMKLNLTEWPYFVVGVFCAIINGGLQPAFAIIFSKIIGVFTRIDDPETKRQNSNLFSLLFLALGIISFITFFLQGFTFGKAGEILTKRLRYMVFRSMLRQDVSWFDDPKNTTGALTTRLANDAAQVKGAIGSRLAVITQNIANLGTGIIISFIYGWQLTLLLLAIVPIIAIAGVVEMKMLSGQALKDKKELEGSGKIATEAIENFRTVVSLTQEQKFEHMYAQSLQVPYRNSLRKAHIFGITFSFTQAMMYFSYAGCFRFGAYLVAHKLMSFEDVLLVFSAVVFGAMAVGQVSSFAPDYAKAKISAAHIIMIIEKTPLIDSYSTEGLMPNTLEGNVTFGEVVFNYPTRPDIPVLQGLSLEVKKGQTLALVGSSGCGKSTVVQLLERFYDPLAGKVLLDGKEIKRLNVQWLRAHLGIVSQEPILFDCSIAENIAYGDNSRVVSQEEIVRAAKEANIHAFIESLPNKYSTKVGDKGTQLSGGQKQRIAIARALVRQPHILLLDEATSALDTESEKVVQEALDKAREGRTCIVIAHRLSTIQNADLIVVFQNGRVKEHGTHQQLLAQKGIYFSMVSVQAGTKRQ

In the case of `O=C1CCCCCCCCCCCNC(=O)[C@@H](Cc2ccccc2)NC(=O)/C(c2cccc3ccccc23)=C\C=C(\c2ccccc2)CN1`, the Activity [1] is reported as “Non-Toxic”, the Activity [2] is reported as 1059.5 mm3 and the bioavailability [3] is reported as 47.3%. For the same compound, the IC50 [4] was 75.9 nM, the “Ratio IC50” value [5] was 432 and the Activity [6] was 122 mm3. For the same compound, the Tmax [7] was 3 h, the IC50 at 48 h [8] was greater than 100000 nM and the Activity [9] was 119.8 mm3. For the same compound, the inhibition in vivo at 25 mg/kg [10] was 35%, the IC50 [11] was 116 nM and the IC50 [12] was 0.9 nM. For the same compound, the IC50 [13] was 37.5 nM, the AUC(0-t) [14] was 9470 ng·h/mL and the Activity [15] was “Non-Toxic”. The half-life [16] was 2.56 h, the IC50 [17] was 4.6 nM and the clearance [18] was 11.9 mL/min/kg. For the same compound, the Activity [19] was 121.6 mm3, the IC50 [20] was 0.02 nM and the inhibition in vivo at 50 mg/kg [21] was 52%. It also gave a T/C [22] of 48%, an IC50 [23] of 0.8 nM and an AUC(0-t) [24] of 17000 ng·h/mL. For the same compound, the AUC(0-inf) [25] was 4350 ng·h/mL, the T/C [26] was 113% and the Activity [27] was “inactive”. The Activity [28] was “Non-Toxic”, the Activity [29] was 1703.9 mm3 and the T/C [30] was 65%. The AUC(0-inf) [31] was 20600 ng·h/mL, the Activity [32] was “Non-Toxic” and the AUC(0-t) [33] was 4320 ng·h/mL. It also gave a Cmax [34] of 1930 ng/mL, an Activity [35] of 1384 mm3 and a bioavailability [36] of 21.9%. The Activity [37] was “Non-Toxic”, the Activity [38] was “Non-Toxic” and the IC50 at 48 h [39] was greater than 100000 nM. The Tmax [40] was 2.67 h, the Cmax [41] was 2670 ng/mL and the inhibition in vivo at 50 mg/kg [42] was 19%. The half-life [43] was 11.9 h, the AUC(0-inf) [44] was 9490 ng·h/mL and the half-life [45] was 2.08 h. The Activity [46] was “Active” and the IC50 [47] was 0.7 nM.

Reference: ChEMBL document CHEMBL5380791, “Modular Biomimetic Strategy Enabled Discovery of Simplified Pseudo-Natural Macrocyclic P-Glycoprotein Inhibitors Capable of Overcoming Multidrug Resistance” (J Med Chem, 2023)
